From patent US7615643B2 (SmithKline Beecham Corporation, priority 2006, dated 2009)

Molecular target: T1, PLK1 (Homo sapiens, UniProt P53350)
T1 construct: PLK kinase domain (amino acids 21-346 preceded by MKKGHHHHHHD); made in house; host or cells: baculovirus infected T. ni cells
Assay: Assay for inhibition of PLK1 (SPA kinase assay)
Assay type: biochemical
Details: 1 μM ATP, 2 nM PLK1 kinase domain; for IC50: read-out: PLK1 pIC50 (converted)
Method in brief: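 His-tagged PLK1 kinase domain (aa 21-346, baculovirus/T. ni) at 2 nM with 1 μM ATP plus 33P-γ-ATP and 1 μM biotinylated peptide in 25 mM HEPES pH 7.2, 15 mM MgCl2, 1 mM DTT, 0.15 mg/mL BSA; 1-1.5 h at 22° C. Streptavidin SPA capture read; percent inhibition versus DMSO, EDTA background.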

T1 sequence (P53350 21-346): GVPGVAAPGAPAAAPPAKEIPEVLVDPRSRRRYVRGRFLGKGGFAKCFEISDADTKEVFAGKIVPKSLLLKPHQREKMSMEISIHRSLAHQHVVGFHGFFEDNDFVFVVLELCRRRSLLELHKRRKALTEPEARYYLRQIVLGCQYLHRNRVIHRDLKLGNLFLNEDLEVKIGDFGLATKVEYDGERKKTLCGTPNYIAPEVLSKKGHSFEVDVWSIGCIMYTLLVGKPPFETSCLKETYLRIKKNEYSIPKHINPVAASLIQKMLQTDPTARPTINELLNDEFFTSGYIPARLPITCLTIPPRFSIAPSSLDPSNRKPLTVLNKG

SMILES	IC50 [nM]	PLK1 pIC50
C[C@@H](Oc1cc(-n2cnc3cc(-c4cnn(C)c4)ccc32)sc1C(N)=O)c1cccc(OCC2CCN(C)CC2)c1Cl [Example 45, 3-{[(1R)-1-(2-Chloro--3-{[(1-methyl-4-piperidinyl)methyl]oxy}phenyl)ethyl]oxy}-5-[5-(1-methyl-1H-pyrazol-4-yl)-1H-benzimidazol-1-yl]-2-thiopnenecarboxamide]	< 100	–
C[C@@H](Oc1cc(-n2cnc3cc(-c4cnn(C)c4)ccc32)sc1C(N)=O)c1cccc(OC2CCN(C(=O)OC(C)(C)C)CC2)c1Cl [Example 46, 1,1-Dimethylethyl 4-({3-[(1R)-1-({2-(aminocarbonyl)-5-[5-(1-methyl-1H-pyrazol-4-yl)-1H-benzimidazol-1-yl]-3-thienyl}oxy)ethyl]-2-chlorophenyl}oxy)-1-piperidinecarboxylate]	< 100	–
C[C@@H](Oc1cc(-n2cnc3cc(-c4cnn(C)c4)ccc32)sc1C(N)=O)c1cccc(OC2CCNCC2)c1Cl [Example 47, 3-({(1R)-1-[2-Chloro-3-(4-piperidinyloxy)phenyl]ethyl}oxy)-5-[5-(1-methyl-1H-pyrazol-4-yl)-1H-benzimidazol-1-yl]-2-thiophenecarboxamide]	< 100	–
C[C@@H](Oc1cc(-n2cnc3cc(-c4cnn(C)c4)ccc32)sc1C(N)=O)c1cccc(OC2CCN(C)CC2)c1Cl [Example 48, 3-[((1R)-1-{2-Chloro-3-[(1-methyl-4-piperidinyl)oxy]phenyl}ethyl)oxy]-5-[5-(1-methyl-1H-pyrazol-4-yl)-1H-benzimidazol-1-yl]-2-thiophenecarboxamide]	< 100	–
Cc1cc(-c2ccc3c(c2)ncn3-c2cc(O[C@H](C)c3cccc(OC4CCNCC4)c3Cl)c(C(N)=O)s2)ccn1 [Example 49, 3-({(1R)-1-[2-Chloro-3-(4-piperidinyloxy)phenyl]ethyl}oxy)-5-[5-(2-methyl-4-pyridinyl)-1H-benzimidazol-1-yl]-2-thiophenecarboxamide]	< 100	–
Cc1cc(-c2ccc3c(c2)ncn3-c2cc(O[C@H](C)c3cccc(OC4CCN(C)CC4)c3Cl)c(C(N)=O)s2)ccn1 [Example 50, 3-[((1R)-1-{2-Chloro-3-[(1-methyl-4-piperidinyl)oxy]phenyl}ethyl)oxy]-5-[5-(2-methyl-4-pyridinyl)-1H-benzimidazol-1-yl]-2-thiophenecarboxamide]	< 100	–
C[C@@H](Oc1cc(-n2cnc3cc(Br)ccc32)sc1C(N)=O)c1cccc(OC2CCN(C)CC2)c1Cl [Example 51, 5-(5-Bromo-1H-benzimidazol-1-yl)-3-[((1R)-1-{2-chloro-3-[(1-methyl-4-piperidinyl)oxy]phenyl}ethyl)oxy]-2-thiophenecarboxamide]	< 100	–
C[C@@H](Oc1cc(-n2cnc3ccc(Cl)cc32)sc1C(N)=O)c1cccc(OC2CCN(C)CC2)c1Cl [Example 53]	< 100	–
C[C@@H](Oc1cc(-n2cnc3ccc(CS(C)(=O)=O)cc32)sc1C(N)=O)c1cccc(OC2CCNCC2)c1Cl [Example 54, 3-({(1R)-1-[2-Chloro-3-(4-piperidinyloxy)phenyl]ethyl}oxy)-5-{6-[(methylsulfonyl)methyl]-1H-benzimidazol-1-yl}-2-thiophenecarboxamide]	< 100	–
C[C@@H](Oc1cc(-n2cnc3ccc(CS(C)(=O)=O)cc32)sc1C(N)=O)c1cccc(OC2CCN(C)CC2)c1Cl [Example 55, 3-[((1R)-1-{2-chloro-3-[(1-methyl-4-piperidinyl)oxy]phenyl}ethyl)oxy]-5,6-{6-[(methylsulfonyl)methyl]-1H-benzimidazol-1-yl}-2-thiophenecarboxamide]	< 100	–
C[C@@H](Oc1cc(-n2cnc3ccc(CS(C)(=O)=O)cc32)sc1C(N)=O)c1cccc(OCC2CCNCC2)c1Cl [Example 56, 3-[((1R)-1-{2-chloro-3-[(4-piperidinylmethyl)oxy]phenyl}ethyl)oxy]-5-{6-[(methylsulfonyl)methyl]-1H-benzimidazol-1-yl}-2-thiophenecarboxamide]	< 100	–
C[C@@H](Oc1cc(-n2cnc3ccc(CS(C)(=O)=O)cc32)sc1C(N)=O)c1cccc(OCC2CCCN2C)c1Cl (stereo partly drawn) [Example 57, 3-({(1R)-1-[2-Chloro-3-({[(2S)-1-methyl-2-pyrrolidinyl]metliyl}oxy)phenyl]ethyl}oxy)-5-{6-[(methylsulfonyl)methyl]-1H-benzimidazol-1-yl}-2-thiophenecarboxamide]	< 100	–
C[C@@H](Oc1cc(-n2cnc3cc(OC(F)(F)F)ccc32)sc1C(N)=O)c1cccc(OC2CCN(C)CC2)c1Cl [Example 62, 3-[((1R)-1-{2-chloro-3-[(1-methyl-4-piperidinyl)oxy]phenyl}ethyl)oxy]-5-{5-[(trifluoromethyl)oxy]-1H-benzimidazol-1-yl}-2-thiophenecarboxamide]	< 100	–
C[C@@H](Oc1cc(-n2cnc3ccc(OC(F)(F)F)cc32)sc1C(N)=O)c1cccc(OC2CCN(C)CC2)c1Cl [Example 64, 3-[((1R)-1-{2-chloro-3-[(1-methyl-4-piperidinyl)oxy]phenyl}ethyl)oxy]-5-{6-[(trifluoromethyl)oxy]-1H-benzimidazol-1-yl}-2-thiophenecarboxamide]	< 100	–
CC(Oc1cc(-n2cnc3cc(-c4cnn(C)c4)ccc32)sc1C(N)=O)c1ccnc(OC2CCN(C)CC2)c1 (stereo not shown) [Example 80, 3-[(1-{2-[(1-Methyl-4-piperidinyl)oxy]-4-pyridinyl}ethyl)oxy]-5-[5-(1-methyl-1H-pyrazol-4-yl)-1H-benzimidazol-1-yl]-2-thiophenecarboxamide]	< 100	–
Cn1cc(-c2ccc3c(c2)ncn3-c2cc(OCc3cccc(OC4CCNCC4)c3)c(C(N)=O)s2)cn1 [Example 83, 5-[5-(1-Methyl-1H-pyrazol-4-yl)-1H-benzimidazol-1-yl]-3-({[3-(4-piperidinyloxy)phenyl]methyl}oxy)-2-thiophenecarboxamide]	< 100	–

Other lines, results leading:

IC50 [nM]	PLK1 pIC50	SMILES
< 100	–	C[C@@H](Oc1cc(-n2cnc3ccc(Cl)cc32)sc1C(N)=O)c1cccc(OC2CCNCC2)c1Cl [Example 52, 5-(6-Chloro-1H-benzimidazol-1-yl)-3-({(1R)-1-[2-chloro-3-(4-piperidinyloxy)phenyl]ethyl}oxy)-2-thiophenecarboxamide]
–	+++ (pIC50>7)	C[C@@H](Oc1cc(-n2cnc3ccc(S(C)(=O)=O)cc32)sc1C(N)=O)c1cccc(OC2CCNCC2)c1Cl [Example 60, 3-({(1R)-1-[2-chloro-3-(4-piperidineloxy)phenyl]ethyl}oxy)-5-[6-(methylsulfonyl)-1H-benzimidazol-1-yl]-2-thiophenecarboxamide]
< 100	–	C[C@@H](Oc1cc(-n2cnc3cc(OC(F)(F)F)ccc32)sc1C(N)=O)c1cccc(OC2CCNCC2)c1Cl [Example 61, 3-({(1R)-1-[2-chloro-3-(4-piperidinyloxy)phenyl]ethyl}oxy)-5-{5-[(trifluoromethyl)oxy]-1H-benzimidazol-1-yl}-2-thiophenecarboxamide]
< 100	–	C[C@@H](Oc1cc(-n2cnc3ccc(OC(F)(F)F)cc32)sc1C(N)=O)c1cccc(OC2CCNCC2)c1Cl [Example 63, 3-({(1R)-1-[2-chloro-3-(4-piperidinyloxy)phenyl]ethyl}oxy)-5-{6-[(trifluoromethyl)oxy]-1H-benzimidazol-1-yl}-2-thiophenecarboxamide]
< 100	–	C[C@@H](Oc1cc(-n2cnc3cc(F)c(F)cc32)sc1C(N)=O)c1cccc(OC2CCNCC2)c1Cl [Example 65, 3-({(1R)-1-[2-chloro-3-(4-piperidinyloxy)phenyl]ethyl}oxy)-5-(5,6-difluoro-1H-benzimidazol-1-yl)-2-thiophenecarboxamide]
< 100	–	C[C@@H](Oc1cc(-n2cnc3cc(F)c(F)cc32)sc1C(N)=O)c1cccc(OC2CCN(C)CC2)c1Cl [Example 66, 3-[((1R)-1-{2-chloro-3-[(1-methyl-4-piperidinyl)oxy]phenyl}ethyl)-oxy]-5-(5,6-difluoro-1H-benzimidazol-1-yl)-2-thiophenecarboxamide]
< 100	–	C[C@@H](Oc1cc(-n2cnc3cc(Cl)c(F)cc32)sc1C(N)=O)c1cccc(OC2CCNCC2)c1Cl [Example 67, 5-(5-Chloro-6-fluoro-1H-benzimidazol-1-yl)-3-({(1R)-1-[2-chloro-3-(4-piperidinyloxy)phenyl]ethyl}oxy)-2-thiophenecarboxamide]
< 100	–	C[C@@H](Oc1cc(-n2cnc3cc(Cl)c(F)cc32)sc1C(N)=O)c1cccc(OC2CCN(C)CC2)c1Cl [Example 68, 5-(5-Chloro-6-fluoro-1H-benzimidazol-1-yl)-3-[((1R)-1-{2-chloro-3-[(1-methyl-4-piperidinyl)oxy]phenyl}ethyl)oxy]-2-thiophenecarboxamide]
< 100	–	C[C@@H](Oc1cc(-n2cnc3cc(F)c(Cl)cc32)sc1C(N)=O)c1cccc(OC2CCNCC2)c1Cl [Example 69, 5-(6-Chloro-5-fluoro-1H-benzimidazol-1-yl)-3-({(1R)-1-[2-chloro-3-(4-piperidinyloxy)phenyl]ethyl}oxy)-2-thiophenecarboxamide]
< 100	–	C[C@@H](Oc1cc(-n2cnc3cc(F)c(Cl)cc32)sc1C(N)=O)c1cccc(OC2CCN(C)CC2)c1Cl [Example 70, 5-(6-Chloro-5-fluoro-1H-benzimidazol-1-yl)-3-[((1R)-1-{2-chloro-3-[(1-methyl-4-piperidinyl)oxy]phenyl}ethyl)oxy]-2-thiophenecarboxamide]
< 100	–	C[C@@H](Oc1cc(-n2cnc3cc(Cl)c(Cl)cc32)sc1C(N)=O)c1cccc(OC2CCNCC2)c1Cl [Example 71, 3-({(1R)-1-[2-Chloro-3-(4-piperidinyloxy)phenyl]ethyl}oxy)-5-(5,6-dichloro-1H-benzimidazol-1-yl)-2-thiophenecarboxamide]
< 100	–	C[C@@H](Oc1cc(-n2cnc3cc(Cl)c(Cl)cc32)sc1C(N)=O)c1cccc(OC2CCN(C)CC2)c1Cl [Example 72, 3-[((1R)-1-{2-chloro-3-[(1-methyl-4-piperidinyl)oxy]phenyl}ethyl)oxy]-5-(5,6-dichloro-1H-benzimidazol-1-yl)-2-thiophenecarboxamide]
